The values below come from patent US12673946B2, “Pyrimidin-4(3H)-one derivatives as TRPV4 antagonists” (RaQualia Pharma Inc., priority 2020, dated 2026).

A word on the IC50: it is the concentration at which inhibition is half-maximal. A higher IC50 goes with a need for much substance.

The assay deals with T1, human TRPV4 (Homo sapiens, UniProt Q9HBA0).
T1 construct: host or cells: tetracycline-inducible Flp-In T-REx 293 cells
The assay is described as follows: Hypotonicity-induced Ca2+ influx (Fluo-4, FDSS). The format is cell-based. A digest of the protocol:
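Flp-In T-REx 293 cells with tetracycline-induced human TRPV4, loaded with Fluo-4 for 60 min at 25 °C. Compound added 5 min before hypotonic mannitol/CaCl2 solution. Ca2+ signal recorded for 4.5 min on FDSS.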

[1] abbreviates: Flp-In T-REx 293 cells expressing human TRPV4, examples listed under heading 'Human IC50<50 nM'.
Where [2] appears, read: Flp-In T-REx 293 cells stably expressing human TRPV4, compounds listed by potency bin (<10 nM Tables 96-1/96-2, <3 nM Table 97).

Molecules are shown by their SMILES. Bounds are passed on as bounds.

T1 sequence (Q9HBA0 whole entry): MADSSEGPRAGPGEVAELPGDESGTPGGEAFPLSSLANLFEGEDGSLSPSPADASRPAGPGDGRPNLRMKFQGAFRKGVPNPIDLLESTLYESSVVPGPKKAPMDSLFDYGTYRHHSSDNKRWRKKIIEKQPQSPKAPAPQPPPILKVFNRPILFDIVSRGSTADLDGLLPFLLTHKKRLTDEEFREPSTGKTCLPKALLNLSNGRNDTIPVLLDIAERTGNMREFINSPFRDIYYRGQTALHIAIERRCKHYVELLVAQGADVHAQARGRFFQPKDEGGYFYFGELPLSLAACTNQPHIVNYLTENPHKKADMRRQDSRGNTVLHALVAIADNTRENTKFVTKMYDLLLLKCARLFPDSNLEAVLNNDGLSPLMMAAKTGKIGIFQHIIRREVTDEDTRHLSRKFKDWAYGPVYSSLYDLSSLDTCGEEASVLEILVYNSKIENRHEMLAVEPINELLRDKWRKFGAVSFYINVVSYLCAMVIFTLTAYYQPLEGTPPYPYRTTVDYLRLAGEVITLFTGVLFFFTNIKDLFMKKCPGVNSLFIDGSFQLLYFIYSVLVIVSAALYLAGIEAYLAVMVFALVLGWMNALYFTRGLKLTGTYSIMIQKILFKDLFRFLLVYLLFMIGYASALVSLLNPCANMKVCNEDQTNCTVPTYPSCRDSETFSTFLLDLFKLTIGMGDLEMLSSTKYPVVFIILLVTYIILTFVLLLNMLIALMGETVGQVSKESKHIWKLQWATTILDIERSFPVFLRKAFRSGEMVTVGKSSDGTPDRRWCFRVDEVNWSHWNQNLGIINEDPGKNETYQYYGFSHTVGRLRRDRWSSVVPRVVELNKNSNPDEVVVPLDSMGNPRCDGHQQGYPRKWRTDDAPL

The compound `O=C(C(O)c1cncc(-c2cccc(Cl)c2)c1)N1CCc2nc(C3(c4ccccc4)CC3)[nH]c(=O)c2C1` (centres unmarked) [48-5] came in with a 50% inhibitory concentration (IC50) under setting [1] of under 50 nM and a half-maximal inhibitory concentration (IC50) under setting [2] of under 10 nM.

Regarding `O=C(C(O)c1cccc(-c2cccc(C3CC3)c2)n1)N1CCc2nc(C3(c4ccccc4)CC3)[nH]c(=O)c2C1` (centres unmarked) [48-6], the IC50 was under 50 nM under setting [1] and under 10 nM under setting [2].

Under setting [1], `O=C(C(O)c1cncc(-c2ccnc(C(F)(F)F)c2)c1)N1CCc2nc(C3(c4ccccc4)CC3)[nH]c(=O)c2C1` (centres unmarked) [48-7] had an IC50 of under 50 nM.

Under setting [1], `O=C(C(O)c1cccc(-c2cccc(Cl)c2)n1)N1CCc2nc(C3(c4ccccc4)CC3)[nH]c(=O)c2C1` (centres unmarked) [48-8] registered a half-inhibitory concentration (IC50) of under 50 nM.

`CC(C)(C)c1cccc(-c2cccc(C(O)C(=O)N3CCc4nc(C5(c6ccccc6)CC5)[nH]c(=O)c4C3)n2)c1` (centres unmarked) [48-9] registered an IC50 under setting [1] of under 50 nM.

The compound `O=C(C(O)c1cccc(-c2cccc(F)c2)n1)N1CCc2nc(C3(c4ccccc4)CC3)[nH]c(=O)c2C1` (centres unmarked) [48-10] yielded an IC50 under setting [1] of under 50 nM.

In the case of `O=C(C(O)c1cncc(-c2cccc(F)c2)c1)N1CCc2nc(C3(c4ccccc4)CC3)[nH]c(=O)c2C1` (centres unmarked) [48-11], the IC50 under setting [1] is under 50 nM.

Turning to `O=C(C(O)c1cccc(-c2cnc3ccccc3c2)c1)N1CCCc2nc(C3(c4ccccc4)CC3)[nH]c(=O)c2C1` (centres unmarked) [49-1], the IC50 by setting is: under setting [1], under 50 nM; under setting [2], under 10 nM.

Take `O=C(C(O)c1cccc(-c2cc(C(F)(F)F)cc(C(F)(F)F)c2)c1)N1CCCc2nc(C3(c4ccccc4)CC3)[nH]c(=O)c2C1` (centres unmarked) [49-2]: the IC50 is, setting by setting: under setting [1], under 50 nM; under setting [2], under 10 nM.

For the compound `O=C(C(O)c1cccc(-c2ccc(Cl)cc2)c1)N1CCCc2nc(C3(c4ccccc4)CC3)[nH]c(=O)c2C1` (centres unmarked) [49-3], the IC50 under setting [1] was under 50 nM and the IC50 under setting [2] was under 10 nM.

Turning to `O=C(C(O)c1cccc(-c2cc(F)cc(Cl)c2)c1)N1CCCc2nc(C3(c4ccccc4)CC3)[nH]c(=O)c2C1` (centres unmarked) [49-4], the concentration for half-maximal inhibition (IC50) is under 50 nM under setting [1] and under 10 nM under setting [2].

With `O=C(C(O)c1cccc(-c2ccnc(C(F)(F)F)c2)c1)N1CCCc2nc(C3(c4ccccc4)CC3)[nH]c(=O)c2C1` (centres unmarked) [49-5], the IC50 was under 50 nM under setting [1] and under 10 nM under setting [2].

`O=C(C(O)c1cccc(-c2cccc(Cl)c2)c1)N1CCCc2nc(C3(c4ccccc4)CC3)[nH]c(=O)c2C1` (centres unmarked) [49-6] came in with an IC50 under setting [1] of under 50 nM and an IC50 under setting [2] of under 10 nM.

`O=C(C(O)c1cccc(-c2cccc(OC(F)(F)F)c2)c1)N1CCCc2nc(C3(c4ccccc4)CC3)[nH]c(=O)c2C1` (centres unmarked) [49-7] returned an IC50 under setting [1] of under 50 nM and a half-maximal inhibitory concentration (IC50) under setting [2] of under 10 nM.

Regarding `O=C(C(O)c1cccc(-c2cccc(C(F)(F)F)c2)c1)N1CCCc2nc(C3(c4ccccc4)CC3)[nH]c(=O)c2C1` (centres unmarked) [49-8], the IC50 by setting is: under setting [1], under 50 nM; under setting [2], under 10 nM.

Consider `O=C(C(O)c1cccc(-c2cccc(F)c2)c1)N1CCCc2nc(C3(c4ccccc4)CC3)[nH]c(=O)c2C1` (centres unmarked) [49-9], for which the 50% inhibitory concentration (IC50) is under 50 nM under setting [1] and under 10 nM under setting [2].

As to `CC(C)(C)c1cccc(-c2cccc(C(O)C(=O)N3CCCc4nc(C5(c6ccccc6)CC5)[nH]c(=O)c4C3)c2)c1` (centres unmarked) [49-10], the 50% inhibitory concentration (IC50) is under 50 nM under setting [1] and under 10 nM under setting [2].

Consider `O=C(C(O)c1cccc(-c2ccc(OC(F)(F)F)cc2)c1)N1CCCc2nc(C3(c4ccccc4)CC3)[nH]c(=O)c2C1` (centres unmarked) [49-11], for which the IC50 was under 50 nM under setting [1] and under 10 nM under setting [2].

`O=C([C@H](O)c1cccc(-c2cccc(F)c2)c1)N1CCCc2nc(C3(c4ccccc4)CC3)[nH]c(=O)c2C1` [49-12]: the IC50 is, setting by setting: under setting [1], under 50 nM; under setting [2], under 10 nM.

As to `O=C([C@H](O)c1cccc(-c2cccc(C(F)(F)F)c2)c1)N1CCCc2nc(C3(c4ccccc4)CC3)[nH]c(=O)c2C1` [49-13], the IC50 reads like this: under setting [1], under 50 nM; under setting [2], under 3 nM.

In turn, `O=C([C@H](O)c1cccc(-c2cccc(OC(F)(F)F)c2)c1)N1CCCc2nc(C3(c4ccccc4)CC3)[nH]c(=O)c2C1` [49-14] came in with an IC50 under setting [1] of under 50 nM and an IC50 under setting [2] of under 3 nM.

Turning to `O=C([C@H](O)c1cccc(-c2cccc(Cl)c2)c1)N1CCCc2nc(C3(c4ccccc4)CC3)[nH]c(=O)c2C1` [49-15], the IC50 is, setting by setting: under setting [1], under 50 nM; under setting [2], under 3 nM.

In turn, `CC(C)(C)c1cccc(-c2cccc([C@@H](O)C(=O)N3CCCc4nc(C5(c6ccccc6)CC5)[nH]c(=O)c4C3)c2)c1` [49-16] had an IC50 under setting [1] of under 50 nM and a 50% inhibitory concentration (IC50) under setting [2] of under 3 nM.

On to `O=C([C@H](O)c1cccc(-c2ccnc(C(F)(F)F)c2)c1)N1CCCc2nc(C3(c4ccccc4)CC3)[nH]c(=O)c2C1` [49-17], for which the half-inhibitory concentration (IC50) reads like this: under setting [1], under 50 nM; under setting [2], under 3 nM.

For the compound `O=C([C@H](O)c1cccc(-c2ccc(Cl)cc2)c1)N1CCCc2nc(C3(c4ccccc4)CC3)[nH]c(=O)c2C1` [49-18], the IC50 is under 50 nM under setting [1] and under 3 nM under setting [2].

Turning to `O=C([C@H](O)c1cccc(-c2cncc(C(F)(F)F)c2)c1)N1CCCc2nc(C3(c4ccccc4)CC3)[nH]c(=O)c2C1` [49-21], under setting [1], the IC50 is under 50 nM.

`O=C([C@H](O)c1cccc(-c2cccc(C(F)(F)F)n2)c1)N1CCCc2nc(C3(c4ccccc4)CC3)[nH]c(=O)c2C1` [49-22]: the half-inhibitory concentration (IC50) was under 50 nM under setting [1] and under 3 nM under setting [2].

`O=C([C@H](O)c1cccc(-c2csc3ccccc23)c1)N1CCCc2nc(C3(c4ccccc4)CC3)[nH]c(=O)c2C1` [49-24]: the IC50 is, setting by setting: under setting [1], under 50 nM; under setting [2], under 10 nM.

Turning to `O=C([C@H](O)c1cccc(-c2cc3ccccc3o2)c1)N1CCCc2nc(C3(c4ccccc4)CC3)[nH]c(=O)c2C1` [49-25], the IC50 runs as follows: under setting [1], under 50 nM; under setting [2], under 3 nM.

`O=C([C@H](O)c1cccc(-c2cccc(OCc3ccccc3)c2)c1)N1CCCc2nc(C3(c4ccccc4)CC3)[nH]c(=O)c2C1` [49-26]: the IC50 is under 50 nM under setting [1] and under 10 nM under setting [2].

As for `O=C([C@H](O)c1cccc(-c2cc(F)cc(Cl)c2)c1)N1CCCc2nc(C3(c4ccccc4)CC3)[nH]c(=O)c2C1` [49-27], the half-inhibitory concentration (IC50) by setting is: under setting [1], under 50 nM; under setting [2], under 3 nM.

In the case of `O=C([C@H](O)c1cccc(-c2cc3ccccc3s2)c1)N1CCCc2nc(C3(c4ccccc4)CC3)[nH]c(=O)c2C1` [49-28], the IC50 by setting is: under setting [1], under 50 nM; under setting [2], under 3 nM.

With `Cc1cc(Cl)cc(-c2cccc([C@@H](O)C(=O)N3CCCc4nc(C5(c6ccccc6)CC5)[nH]c(=O)c4C3)c2)c1` [49-29], the 50% inhibitory concentration (IC50) is, setting by setting: under setting [1], under 50 nM; under setting [2], under 10 nM.

As for `O=C([C@H](O)c1cccc(-c2ccc(F)c(Cl)c2)c1)N1CCCc2nc(C3(c4ccccc4)CC3)[nH]c(=O)c2C1` [49-30], the IC50 is under 50 nM under setting [1] and under 3 nM under setting [2].

For the compound `Cc1ccc(-c2cccc([C@@H](O)C(=O)N3CCCc4nc(C5(c6ccccc6)CC5)[nH]c(=O)c4C3)c2)cc1Cl` [49-31], the IC50 is, setting by setting: under setting [1], under 50 nM; under setting [2], under 3 nM.

Consider `O=C([C@H](O)c1cccc(-c2cc(C(F)(F)F)cc(C(F)(F)F)c2)c1)N1CCCc2nc(C3(c4ccccc4)CC3)[nH]c(=O)c2C1` [49-32], for which the IC50 runs as follows: under setting [1], under 50 nM; under setting [2], under 10 nM.

As to `O=C([C@H](O)c1cccc(-c2ccc(OC(F)(F)F)cc2)c1)N1CCCc2nc(C3(c4ccccc4)CC3)[nH]c(=O)c2C1` [49-33], the half-inhibitory concentration (IC50) is under 50 nM under setting [1] and under 3 nM under setting [2].

`O=C([C@H](O)c1cccc(-c2cc(Cl)cc(OC(F)(F)F)c2)c1)N1CCCc2nc(C3(c4ccccc4)CC3)[nH]c(=O)c2C1` [49-34] yielded an IC50 under setting [1] of under 50 nM and an IC50 under setting [2] of under 10 nM.

For `O=C([C@H](O)c1cccc(-c2cc(Cl)cc(Cl)c2)c1)N1CCCc2nc(C3(c4ccccc4)CC3)[nH]c(=O)c2C1` [49-35], the concentration for half-maximal inhibition (IC50) was under 50 nM under setting [1] and under 10 nM under setting [2].

Turning to `O=C([C@H](O)c1cccc(-c2cc(Cl)cc(C(F)(F)F)c2)c1)N1CCCc2nc(C3(c4ccccc4)CC3)[nH]c(=O)c2C1` [49-36], the 50% inhibitory concentration (IC50) was under 50 nM under setting [1] and under 3 nM under setting [2].

Regarding `O=C([C@H](O)c1cccc(-c2ccc(Cl)c(C(F)(F)F)c2)c1)N1CCCc2nc(C3(c4ccccc4)CC3)[nH]c(=O)c2C1` [49-37], the IC50 runs as follows: under setting [1], under 50 nM; under setting [2], under 10 nM.

For the compound `O=C([C@H](O)c1cccc(-c2ccc(OCc3ccccc3)nc2)c1)N1CCCc2nc(C3(c4ccccc4)CC3)[nH]c(=O)c2C1` [49-38], the half-maximal inhibitory concentration (IC50) is, setting by setting: under setting [1], under 50 nM; under setting [2], under 3 nM.

As to `O=C([C@H](O)c1cccc(-c2ccc3c(c2)OC(F)(F)O3)c1)N1CCCc2nc(C3(c4ccccc4)CC3)[nH]c(=O)c2C1` [49-39], the IC50 runs as follows: under setting [1], under 50 nM; under setting [2], under 3 nM.

With `O=C([C@H](O)c1cccc(-c2ccc(Cl)c(Cl)c2)c1)N1CCCc2nc(C3(c4ccccc4)CC3)[nH]c(=O)c2C1` [49-40], the 50% inhibitory concentration (IC50) was under 50 nM under setting [1] and under 3 nM under setting [2].

Take `O=C([C@H](O)c1cccc(-c2ccc(Cl)c(OC(F)(F)F)c2)c1)N1CCCc2nc(C3(c4ccccc4)CC3)[nH]c(=O)c2C1` [49-41]: the half-maximal inhibitory concentration (IC50) by setting is: under setting [1], under 50 nM; under setting [2], under 10 nM.

As for `O=C([C@H](O)c1cccc(-c2cccc(Cl)c2Cl)c1)N1CCCc2nc(C3(c4ccccc4)CC3)[nH]c(=O)c2C1` [49-42], the IC50 reads like this: under setting [1], under 50 nM; under setting [2], under 10 nM.

For the compound `O=C([C@H](O)c1cccc(-c2cc(Cl)ccc2Cl)c1)N1CCCc2nc(C3(c4ccccc4)CC3)[nH]c(=O)c2C1` [49-43], the IC50 under setting [1] was under 50 nM and the IC50 under setting [2] was under 10 nM.

With `N#Cc1cc(Cl)cc(-c2cccc([C@@H](O)C(=O)N3CCCc4nc(C5(c6ccccc6)CC5)[nH]c(=O)c4C3)c2)c1` [49-44], the IC50 under setting [1] was under 50 nM and the IC50 under setting [2] is under 3 nM.

Consider `CC(C)Oc1cccc(-c2cccc([C@@H](O)C(=O)N3CCCc4nc(C5(c6ccccc6)CC5)[nH]c(=O)c4C3)c2)c1` [49-45], for which the half-inhibitory concentration (IC50) runs as follows: under setting [1], under 50 nM; under setting [2], under 3 nM.
